Experimental data taken from PubChem BioAssay (NCI).
“And” between values parts separate entries of the source, which are not always exact repeats. Equal entries are not always repeated.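 A five-concentration, 48-hour dose response in 96-well plates underlies each endpoint, interpolated linearly between surrounding concentrations. Abbreviation: GI50, concentration required for 50% inhibition of growth. Definition used: TGI = concentration required for complete inhibition of growth.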

Tests used:
Test in all cases: DTP human tumour cell line panel, 48 h
HT29 colon = tested on: HT29 colon
A549 NSCLC = tested on: A549 NSCLC
CAKI-1 renal = tested on: CAKI-1 renal
OVCAR-5 ovarian = tested on: OVCAR-5 ovarian
ACHN renal = tested on: ACHN renal
RPMI-8226 leukemia = tested on: RPMI-8226 leukemia
SNB-75 CNS = tested on: SNB-75 CNS
EKVX NSCLC = tested on: EKVX NSCLC
LOX IMVI melanoma = tested on: LOX IMVI melanoma
SK-OV-3 ovarian = tested on: SK-OV-3 ovarian
DU-145 prostate = tested on: DU-145 prostate
NCI/ADR-RES ovarian = tested on: NCI/ADR-RES ovarian

SMILES: C/C=C/C#CC#C/C=C/C=C/C(O)CCO (configuration not stated)
- TGI (HT29 colon): > 23.1 µM
- TGI (A549 NSCLC): > 23.1 µM
- TGI (CAKI-1 renal): > 23.1 µM
- TGI (OVCAR-5 ovarian): > 23.1 µM
- TGI (ACHN renal): > 23.1 µM
- TGI (RPMI-8226 leukemia): > 23.1 µM
- TGI (SNB-75 CNS): > 23.1 µM
- TGI (EKVX NSCLC): > 23.1 µM
- TGI (LOX IMVI melanoma): > 23.1 µM
- TGI (SK-OV-3 ovarian): > 23.1 µM

SMILES: CCOC(=O)CNC(=O)C(CSC(=O)N(O)c1ccc(Cl)cc1)NC(=O)CCC(N)C(=O)OCC (configuration not stated)
- TGI (HT29 colon): > 50 µM
- TGI (A549 NSCLC): > 50 µM
- TGI (DU-145 prostate): > 50 µM
- TGI (CAKI-1 renal): > 50 µM
- TGI (OVCAR-5 ovarian): > 50 µM
- TGI (ACHN renal): > 50 µM
- TGI (RPMI-8226 leukemia): 46 µM
- TGI (EKVX NSCLC): > 50 µM
- TGI (LOX IMVI melanoma): > 50 µM
- TGI (SK-OV-3 ovarian): > 50 µM
- TGI (NCI/ADR-RES ovarian): > 50 µM

SMILES: COC(=O)c1ccc(S)c(S(=O)(=O)Nc2n[nH]c(N)n2)c1
- TGI (HT29 colon): > 100 µM
- TGI (A549 NSCLC): > 100 µM
- TGI (DU-145 prostate): > 100 µM
- TGI (CAKI-1 renal): > 100 µM
- TGI (OVCAR-5 ovarian): > 100 µM
- TGI (ACHN renal): > 100 µM
- TGI (RPMI-8226 leukemia): > 100 µM
- TGI (EKVX NSCLC): > 100 µM
- TGI (LOX IMVI melanoma): > 100 µM
- TGI (NCI/ADR-RES ovarian): > 100 µM

SMILES: COc1ccc(N2C(=O)/C(=C\c3cc(OC)c(OC)c(OC)c3)SC2c2ccccc2)cc1 (configuration not stated)
- TGI (HT29 colon): > 100 µM
- TGI (A549 NSCLC): > 100 µM
- TGI (DU-145 prostate): > 100 µM
- TGI (CAKI-1 renal): > 100 µM
- TGI (OVCAR-5 ovarian): > 100 µM
- TGI (ACHN renal): > 100 µM
- TGI (RPMI-8226 leukemia): > 100 µM
- TGI (EKVX NSCLC): > 100 µM
- TGI (LOX IMVI melanoma): > 100 µM
- TGI (SK-OV-3 ovarian): > 100 µM
- TGI (NCI/ADR-RES ovarian): > 100 µM

SMILES: CC1=C(O)C2=C(C(=O)C1=O)[C@@H](C)CC[C@@H]2[C@@H](C)C/C=C/C(C)(C)O
- TGI (HT29 colon): > 100 µM
- TGI (A549 NSCLC): > 100 µM
- TGI (DU-145 prostate): > 100 µM
- TGI (CAKI-1 renal): > 100 µM
- TGI (OVCAR-5 ovarian): > 100 µM
- TGI (ACHN renal): 98 µM
- TGI (RPMI-8226 leukemia): 56.3 µM
- TGI (LOX IMVI melanoma): > 100 µM
- TGI (SK-OV-3 ovarian): > 100 µM
- TGI (NCI/ADR-RES ovarian): > 100 µM

SMILES: CC1(C)CNCC(C)(OCc2ccccc2)C(=O)NC(C)(C)CNCC(C)(OCc2ccccc2)C(=O)N1 (configuration not stated)
- TGI (A549 NSCLC): > 10 µM
- TGI (DU-145 prostate): > 10 µM
- TGI (OVCAR-5 ovarian): > 10 µM
- TGI (ACHN renal): > 10 µM
- TGI (SNB-75 CNS): > 10 µM
- TGI (EKVX NSCLC): > 10 µM
- TGI (LOX IMVI melanoma): > 10 µM
- TGI (SK-OV-3 ovarian): > 10 µM

SMILES: Oc1ccc2cc(Br)ccc2c1-c1c(O)ccc2ccc(Br)cc12
- TGI (HT29 colon): 10.1 µM
- TGI (A549 NSCLC): 30.4 µM
- TGI (DU-145 prostate): 29.2 µM
- TGI (CAKI-1 renal): 34 µM
- TGI (OVCAR-5 ovarian): 30.8 µM
- TGI (ACHN renal): 28 µM
- TGI (SK-OV-3 ovarian): 24.6 µM
- TGI (NCI/ADR-RES ovarian): 27.7 µM

SMILES: CCOP1(=O)C=C(C)C(Cl)=C(C)C1 (configuration not stated)
- TGI (HT29 colon): 79.6 µM
- TGI (A549 NSCLC): 65 µM
- TGI (OVCAR-5 ovarian): > 100 µM
- TGI (ACHN renal): 72.2 µM
- TGI (RPMI-8226 leukemia): 62.6 µM
- TGI (SNB-75 CNS): 69.7 µM
- TGI (EKVX NSCLC): > 100 µM
- TGI (LOX IMVI melanoma): 50.4 µM
- TGI (SK-OV-3 ovarian): > 100 µM

SMILES: O=c1[nH]c(=S)nc2nc3c4ccc[nH]c4c4ccccc4c3nc12
- TGI (HT29 colon): > 100 µM
- TGI (A549 NSCLC): > 100 µM
- TGI (DU-145 prostate): > 100 µM
- TGI (CAKI-1 renal): > 100 µM
- TGI (OVCAR-5 ovarian): > 100 µM
- TGI (ACHN renal): > 100 µM
- TGI (RPMI-8226 leukemia): > 100 µM
- TGI (SNB-75 CNS): > 100 µM
- TGI (EKVX NSCLC): > 100 µM
- TGI (SK-OV-3 ovarian): > 100 µM

SMILES: Cc1nc2ccc(C(F)(F)F)cc2nc1NCc1ccc(Cl)c(Cl)c1
- TGI (HT29 colon): 28.2 µM
- TGI (A549 NSCLC): 30.6 µM
- TGI (DU-145 prostate): 31.8 µM
- TGI (CAKI-1 renal): 33.8 µM
- TGI (OVCAR-5 ovarian): 25.9 µM
- TGI (ACHN renal): 28 µM
- TGI (RPMI-8226 leukemia): 38.9 µM
- TGI (SNB-75 CNS): 26.9 µM
- TGI (EKVX NSCLC): 27.4 µM
- TGI (LOX IMVI melanoma): 29.6 µM
- TGI (NCI/ADR-RES ovarian): 47.6 µM

SMILES: CCCCCCCC1(N=[N+]=[N-])C(=O)Nc2ccccc2C1=O (configuration not stated)
- TGI (HT29 colon): 56.8 µM
- TGI (A549 NSCLC): 28 µM
- TGI (DU-145 prostate): 31.8 µM
- TGI (CAKI-1 renal): 27.8 µM
- TGI (OVCAR-5 ovarian): 34 µM
- TGI (ACHN renal): 28.6 µM
- TGI (RPMI-8226 leukemia): > 100 µM
- TGI (SNB-75 CNS): 27.1 µM
- TGI (LOX IMVI melanoma): 26.9 µM
- TGI (SK-OV-3 ovarian): 30.4 µM
- TGI (NCI/ADR-RES ovarian): 48.5 µM

SMILES: CCOC(=O)c1sc2nc(SC)nc3c2c1NCN3c1ccc2c(c1)OCO2
- TGI (HT29 colon): > 100 µM
- TGI (A549 NSCLC): 25.4 µM
- TGI (DU-145 prostate): 39.7 µM
- TGI (CAKI-1 renal): > 100 µM
- TGI (OVCAR-5 ovarian): > 100 µM
- TGI (ACHN renal): 26 µM
- TGI (RPMI-8226 leukemia): > 100 µM
- TGI (EKVX NSCLC): > 100 µM
- TGI (LOX IMVI melanoma): > 100 µM
- TGI (SK-OV-3 ovarian): 24.2 µM
- TGI (NCI/ADR-RES ovarian): 30.8 µM

SMILES: O=C(CCC1C(=O)NC(=S)NC1=O)c1ccc2ccccc2c1
- TGI (HT29 colon): > 100 µM
- TGI (A549 NSCLC): > 100 µM
- TGI (CAKI-1 renal): > 100 µM
- TGI (OVCAR-5 ovarian): > 100 µM
- TGI (ACHN renal): > 100 µM
- TGI (SNB-75 CNS): > 100 µM
- TGI (EKVX NSCLC): > 100 µM
- TGI (LOX IMVI melanoma): > 100 µM
- TGI (SK-OV-3 ovarian): > 100 µM

SMILES: Oc1[nH]c2ccccc2c1N=NC(=S)Nc1ccccc1Cl
- TGI (HT29 colon): 21.9 µM
- TGI (A549 NSCLC): 23.8 µM
- TGI (DU-145 prostate): 58.5 µM
- TGI (CAKI-1 renal): 8.78 µM
- TGI (OVCAR-5 ovarian): > 100 µM
- TGI (ACHN renal): 17.2 µM
- TGI (SNB-75 CNS): 16.1 µM
- TGI (EKVX NSCLC): 77.9 µM
- TGI (LOX IMVI melanoma): 27.4 µM
- TGI (SK-OV-3 ovarian): 35.5 µM
- TGI (NCI/ADR-RES ovarian): 3.48 µM

SMILES: NS(=O)(=O)c1nnc(NS(=O)(=O)C(F)(F)F)s1
- TGI (HT29 colon): > 100 µM
- TGI (A549 NSCLC): > 100 µM
- TGI (DU-145 prostate): > 100 µM
- TGI (CAKI-1 renal): > 100 µM
- TGI (OVCAR-5 ovarian): > 100 µM
- TGI (ACHN renal): > 100 µM
- TGI (RPMI-8226 leukemia): > 100 µM
- TGI (SNB-75 CNS): > 100 µM
- TGI (EKVX NSCLC): > 100 µM
- TGI (SK-OV-3 ovarian): > 100 µM
- TGI (NCI/ADR-RES ovarian): > 100 µM

SMILES: O=C(NC1CCN(Cc2ccccc2)CC1)c1ccc(I)cc1
- TGI (HT29 colon): > 100 µM
- TGI (A549 NSCLC): > 100 µM
- TGI (DU-145 prostate): > 100 µM
- TGI (CAKI-1 renal): > 100 µM
- TGI (OVCAR-5 ovarian): > 100 µM
- TGI (ACHN renal): > 100 µM
- TGI (RPMI-8226 leukemia): > 100 µM
- TGI (EKVX NSCLC): > 100 µM
- TGI (LOX IMVI melanoma): > 100 µM
- TGI (SK-OV-3 ovarian): > 100 µM
- TGI (NCI/ADR-RES ovarian): > 100 µM

SMILES: O=[N+]([O-])c1ccc(OC2CC3C4C=CC3C2C4)c([N+](=O)[O-])c1 (configuration not stated)
- GI50 (HT29 colon): > 100 µM and 30 µM
- TGI (HT29 colon): > 100 µM
- TGI (A549 NSCLC): > 100 µM
- TGI (DU-145 prostate): > 100 µM
- TGI (CAKI-1 renal): > 100 µM
- GI50 (OVCAR-5 ovarian): > 100 µM
- TGI (OVCAR-5 ovarian): > 100 µM
- TGI (ACHN renal): > 100 µM
- GI50 (SNB-75 CNS): 34.5 µM
- TGI (SNB-75 CNS): 69.7 µM and > 31.6 µM
- GI50 (EKVX NSCLC): 56.5 µM and 22 µM
- TGI (EKVX NSCLC): > 100 µM
- GI50 (LOX IMVI melanoma): > 100 µM
- TGI (LOX IMVI melanoma): > 100 µM
- GI50 (SK-OV-3 ovarian): 68.5 µM and > 31.6 µM
- TGI (SK-OV-3 ovarian): > 100 µM
- GI50 (NCI/ADR-RES ovarian): 76.4 µM and > 31.6 µM
- TGI (NCI/ADR-RES ovarian): > 100 µM

SMILES: CCOC(=O)c1nc2cc(C(F)(F)F)ccc2nc1Nc1ccc(OC)cc1
- TGI (HT29 colon): > 100 µM
- TGI (A549 NSCLC): > 100 µM
- TGI (DU-145 prostate): > 100 µM
- TGI (CAKI-1 renal): > 100 µM
- TGI (OVCAR-5 ovarian): > 100 µM
- TGI (ACHN renal): > 100 µM
- TGI (RPMI-8226 leukemia): > 100 µM
- TGI (SNB-75 CNS): > 100 µM
- TGI (EKVX NSCLC): > 100 µM
- TGI (LOX IMVI melanoma): > 100 µM
- TGI (NCI/ADR-RES ovarian): > 100 µM

SMILES: NC1CC(=O)c2c1sc(Cl)c2Cl (configuration not stated)
- TGI (HT29 colon): > 100 µM
- TGI (A549 NSCLC): > 100 µM
- TGI (DU-145 prostate): > 100 µM
- TGI (CAKI-1 renal): > 100 µM
- TGI (OVCAR-5 ovarian): > 100 µM
- TGI (ACHN renal): > 100 µM
- TGI (RPMI-8226 leukemia): > 100 µM
- TGI (SNB-75 CNS): > 100 µM
- TGI (EKVX NSCLC): > 100 µM
- TGI (SK-OV-3 ovarian): > 100 µM
- TGI (NCI/ADR-RES ovarian): > 100 µM
